Assay results: publication PMC10819888, “Benzimidazole-Based Derivatives as Apoptotic Antiproliferative Agents: Design, Synthesis, Docking, and Mechanistic Studies” (Molecules, 2024)

Assays:
[1] = test system: CCRF-CEM; assay: NCI-60 five-dose assay; format: cell-based, human; settings: CCRF-CEM (Leukemia), 48 h
[2] = test system: HL-60(TB); assay: NCI-60 five-dose assay; format: cell-based, human; settings: HL-60(TB) (Leukemia), 48 h
[3] = test system: HOP-92; assay: NCI-60 five-dose assay; format: cell-based, human; settings: HOP-92 (Non-Small Cell Lung Cancer), 48 h
[4] = test system: NCI-H226; assay: NCI-60 five-dose assay; format: cell-based, human; settings: NCI-H226 (Non-Small Cell Lung Cancer), 48 h
[5] = test system: NCI-H23; assay: NCI-60 five-dose assay; format: cell-based, human; settings: NCI-H23 (Non-Small Cell Lung Cancer), 48 h
[6] = test system: NCI-H460; assay: NCI-60 five-dose assay; format: cell-based, human; settings: NCI-H460 (Non-Small Cell Lung Cancer), 48 h
[7] = test system: SNB-19; assay: NCI-60 five-dose assay; format: cell-based, human; settings: SNB-19 (CNS Cancer), 48 h
[8] = test system: SNB-75; assay: NCI-60 five-dose assay; format: cell-based, human; settings: SNB-75 (CNS Cancer), 48 h
[9] = test system: M14; assay: NCI-60 five-dose assay; format: cell-based, human; settings: M14 (Melanoma), 48 h
[10] = test system: SK-MEL-2; assay: NCI-60 five-dose assay; format: cell-based, human; settings: SK-MEL-2 (Melanoma), 48 h
[11] = test system: UACC-257; assay: NCI-60 five-dose assay; format: cell-based, human; settings: UACC-257 (Melanoma), 48 h
[12] = test system: IGROV1; assay: NCI-60 five-dose assay; format: cell-based, human; settings: IGROV1 (Ovarian Cancer), 48 h
[13] = test system: OVCAR-3; assay: NCI-60 five-dose assay; format: cell-based, human; settings: OVCAR-3 (Ovarian Cancer), 48 h
[14] = test system: OVCAR-4; assay: NCI-60 five-dose assay; format: cell-based, human; settings: OVCAR-4 (Ovarian Cancer), 48 h
[15] = test system: OVCAR-8; assay: NCI-60 five-dose assay; format: cell-based, human; settings: OVCAR-8 (Ovarian Cancer), 48 h
[16] = test system: ACHN; assay: NCI-60 five-dose assay; format: cell-based, human; settings: ACHN (Renal Cancer), 48 h
[17] = test system: CAKI-1; assay: NCI-60 five-dose assay; format: cell-based, human; settings: CAKI-1 (Renal Cancer), 48 h
[18] = test system: RXF 393; assay: NCI-60 five-dose assay; format: cell-based, human; settings: RXF 393 (Renal Cancer), 48 h
[19] = test system: TK-10; assay: NCI-60 five-dose assay; format: cell-based, human; settings: TK-10 (Renal Cancer), 48 h
[20] = test system: BT-549; assay: NCI-60 five-dose assay; format: cell-based, human; settings: BT-549 (Breast Cancer), 48 h
[21] = test system: T-47D; assay: NCI-60 five-dose assay; format: cell-based, human; settings: T-47D (Breast Cancer), 48 h
[22] = test system: Non-Small Cell Lung Cancer subpanel; assay: NCI-60 five-dose assay, subpanel; format: cell-based, human
[23] = test system: Colon Cancer subpanel; assay: NCI-60 five-dose assay, subpanel; format: cell-based, human
[24] = test system: Melanoma subpanel; assay: NCI-60 five-dose assay, subpanel; format: cell-based, human
[25] = test system: Renal Cancer subpanel; assay: NCI-60 five-dose assay, subpanel; format: cell-based, human
[26] = biological target: BRAF^V600E; assay: biochemical
[27] = Homo sapiens, read-out: GI50 Conc. per Cell Line
[28] = Homo sapiens, read-out: LC50 (the source's name)

Sequence of BRAF^V600E (P28028 whole entry V585E): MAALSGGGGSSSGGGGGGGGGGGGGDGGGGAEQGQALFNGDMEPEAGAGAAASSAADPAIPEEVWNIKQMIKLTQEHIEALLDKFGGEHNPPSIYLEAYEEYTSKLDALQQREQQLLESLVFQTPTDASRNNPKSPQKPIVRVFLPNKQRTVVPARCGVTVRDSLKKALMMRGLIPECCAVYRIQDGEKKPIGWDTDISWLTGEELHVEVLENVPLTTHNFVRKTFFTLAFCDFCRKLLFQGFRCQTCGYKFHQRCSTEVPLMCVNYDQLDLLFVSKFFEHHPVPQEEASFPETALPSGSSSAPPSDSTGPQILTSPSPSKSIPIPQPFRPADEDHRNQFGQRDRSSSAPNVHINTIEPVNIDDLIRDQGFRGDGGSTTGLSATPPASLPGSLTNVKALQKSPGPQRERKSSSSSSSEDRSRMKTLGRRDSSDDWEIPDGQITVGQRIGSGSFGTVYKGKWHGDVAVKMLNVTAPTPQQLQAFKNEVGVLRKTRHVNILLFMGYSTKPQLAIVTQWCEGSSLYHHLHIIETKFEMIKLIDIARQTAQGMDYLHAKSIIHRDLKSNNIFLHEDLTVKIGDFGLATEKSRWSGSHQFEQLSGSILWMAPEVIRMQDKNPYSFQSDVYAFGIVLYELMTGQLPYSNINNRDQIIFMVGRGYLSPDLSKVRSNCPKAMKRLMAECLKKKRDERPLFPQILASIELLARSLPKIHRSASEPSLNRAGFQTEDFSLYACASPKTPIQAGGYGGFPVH

Work on `O=C(NN=Cc1ccc([N+](=O)[O-])cc1)c1ccc2[nH]c(-c3ccc(Cl)cc3)nc2c1` [Compound 4c, N′-(4-Nitrobenzylidene)-2-(4-chlorophenyl)-1H-benzimidazole-5-carbohydrazide] yielded a TGI [1] of 17.70 µM, a GI50 [1, 27] of 0.591 µM and a CC50 [1, 28] greater than 100 µM. It also gave a TGI [2] of 5.73 µM, a GI50 [2, 27] of 0.797 µM and a CC50 [2, 28] greater than 100 µM. The TGI [3] was 7.52 µM, the GI50 [3, 27] was 0.985 µM and the GI50 [4, 27] was 5.03 µM. It also gave a CC50 [4, 28] greater than 100 µM, a TGI [4] of 31.20 µM and a GI50 [5, 27] of 1.85 µM. For the same molecule, the CC50 [5, 28] was 67.6 µM, the TGI [5] was 11.50 µM and the GI50 [6, 27] was 2.1 µM. It also gave a TGI [6] of 4.49 µM, a GI50 [7, 27] of 7.48 µM and a CC50 [7, 28] greater than 100 µM. For the same molecule, the TGI [7] was 32.40 µM, the GI50 [8, 27] was 2.78 µM and the CC50 [8, 28] was greater than 100 µM. It also gave a TGI [8] of 18.00 µM, a GI50 [9, 27] of 2.73 µM and a CC50 [9, 28] of 67.1 µM. It also gave a TGI [9] of 9.13 µM, a GI50 [10, 27] of 5.1 µM and a TGI [10] of 21.90 µM. The GI50 [11, 27] was 3.37 µM, the CC50 [11, 28] was greater than 100 µM and the TGI [11] was 15.40 µM. It also gave a GI50 ([12]; Homo sapiens, IGROV-1, read-out: GI50 Conc. per Cell Line) of 3.04 µM, a CC50 ([12]; Homo sapiens, IGROV-1, read-out: LC50 (the source's name)) of 52.4 µM and a TGI [12] of 11.40 µM. It also gave a GI50 [13, 27] of 3.25 µM, a CC50 [13, 28] of 40.9 µM and a TGI [13] of 8.23 µM. The GI50 [14, 27] was 2.75 µM, the CC50 [14, 28] was greater than 100 µM and the TGI [14] was 8.64 µM. For the same molecule, the GI50 [15, 27] was 2.89 µM, the CC50 [15, 28] was greater than 100 µM and the TGI [15] was 13.70 µM. It also gave a TGI [16] of 31.90 µM, a GI50 [16, 27] of 4.36 µM and a CC50 [16, 28] greater than 100 µM. It also gave a TGI [17] of 16.10 µM, a GI50 [17, 27] of 3.49 µM and a CC50 [17, 28] of 85.4 µM. It also gave a GI50 [18, 27] of 2.03 µM, a CC50 [18, 28] of 34 µM and a TGI [18] of 7.07 µM. For the same molecule, the GI50 [19, 27] was 8.99 µM, the CC50 [19, 28] was greater than 100 µM and the TGI [19] was 40.23 µM. The TGI [20] was 9.70 µM, the GI50 [20, 27] was 2.84 µM and the CC50 [20, 28] was 50.5 µM. For the same molecule, the GI50 ([21]; Homo sapiens, T47D, read-out: GI50 Conc. per Cell Line) was 2.29 µM, the CC50 ([21]; Homo sapiens, T47D, read-out: LC50 (the source's name)) was greater than 100 µM and the TGI [21] was 7.21 µM. The GI50 ([22]; Homo sapiens, Non-Small Cell Lung Cancer, average sensitivity of all subpanel cell lines, read-out: GI50 Subpanel MID b) was 3.52 µM, the “GI50 Selectivity Ratio (MID a/MID b)” value ([22]; Non-Small Cell Lung Cancer subpanel) was 0.93 and the “GI50 Selectivity Ratio (MID a/MID b)” value ([23]; Colon Cancer subpanel) was 1.30. For the same molecule, the GI50 ([23]; Homo sapiens, Colon Cancer, average sensitivity of all subpanel cell lines, read-out: GI50 Subpanel MID b) was 2.53 µM, the GI50 ([24]; Homo sapiens, Melanoma, average sensitivity of all subpanel cell lines, read-out: GI50 Subpanel MID b) was 2.87 µM and the “GI50 Selectivity Ratio (MID a/MID b)” value ([24]; Melanoma subpanel) was 1.14. For the same molecule, the GI50 ([25]; Homo sapiens, Renal Cancer, average sensitivity of all subpanel cell lines, read-out: GI50 Subpanel MID b) was 4.3 µM, the “GI50 Selectivity Ratio (MID a/MID b)” value ([25]; Renal Cancer subpanel) was 0.76 and the IC50 [26] was 0.31 ± 0.07 µM.
Work on `COc1cc(/C=N/NC(=O)c2ccc3[nH]c(-c4ccc(Cl)cc4)nc3c2)cc(OC)c1OC` [Compound 4h, N′-(3,4,5-Trimethoxybenzylidene)-2-(4-chlorophenyl)-1H-benzimidazole-5 carbohydrazide] yielded an IC50 [26] of 0.82 ± 0.06 µM.
